Measurements as given in patent US12590130B2, “Bipartite molecules and uses thereof in treating diseases associated with abnormal protein aggregates” (ACADEMIA SINICA, priority 2014, dated 2026).
Square brackets hold non-standard residues; d marks the D form. Ends that are not written are not given here. Peptide text beside a SMILES is read from it. * marks the point of attachment. Cbz = O=C(OCc1ccccc1)*

What was measured:
[1] = system: Mouse N2a neuroblastoma cells
Method: Cell viability measurement by MTT assays. […] Each bar was generated by a triplicate experiment; the study was repeated 3 times. The statistics were performed with one way ANOVA corrected with Fisher's LSD test. ***: p<0.001; ****p<0.0001; ns, not significant.
Cell viability assay. The viability of mouse N2a cells incubated with the indicated peptide(s) was measured using the MTT assay.
Mouse N2a neuroblastoma cells (ATCC) were cultured in Dulbecco's modified Eagle's medium (DMEM) (HyClone, USA) supplemented with 10% fetal bovine serum (FBS; HyClone, USA) in 5% CO2 at 37° C. For the cell viability assay, the cells were harvested, suspended at a density of 350,000 cells/mL in DMEM, and 100 μL of each sample was plated in each well of a 96-well CellBIND polystyrene microplate (Corning, USA). […] Cell viability was determined using the MTT (3-[4,5-dimethylthiazol-2-yl]-2,5-diphenyltetrazolium bromide) toxicity assay. […] Ten microliters of 5 mg/mL of MTT in PBS was added to each well, and then, after incubation for 4 h, the medium was removed and the MTT crystals were dissolved in 100 μL of 90% isopropanol, 0.5% SDS, and 40 mM HCl, and their absorption at 570 nm was measured. Cell viability was calculated by dividing the absorbance of the wells containing peptide samples by that of the wells without any added peptide. […]

109QmHtt aggregates = experiment: TIRF microscopy of mHtt aggregates in Neuro2a cells; format: cell-based; conditions: Neuro2a cells expressing 109QmHtt
Method: FIG. 3. Diagrams showing the co-localization of tested bipartite peptides with the 109QmHtt aggregates. Panel A: Structure of TAMRA-labeled 8R10Q used in this study. Panel B: Epifluorescence micrographs of Neuro2a cells expressing 109QmHtt treated with TAMRA-8R10Q (8R10Q) at various time points. Note the co-localization of 8R10Q and 109QmHttGFP aggregates (GFP) from 8-24 hours (arrows). Scale bar: 10 μm. Panel C: TIRF micrographs of the Neuro2a expressing 109QmHtt treated with water or peptides as indicated at various time points. Note the decrease in aggregate size in 8R10Q and 8R15Q-treated cells. Panel D: Quantitation of the size of individual aggregates in Neuro2a at 8 hours (left) and 24 hours (right) after peptide treatment. […] Panel E: Quantitation of the number of aggregates in 20 Neuro2a cells at 12 hours (left) and 24 hours (right) after peptide treatment. Both the 8R10Q and 8R15Q increased the number of aggregates. Statistics performed with one way ANOVA. **p<0.01; ***p<0.001.
To probe into the details of the effect of peptide on the mHtt aggregates, the parameters of the mHtt aggregates were visualized and measured using the Total Internal Reflection Fluorescence (TIRF) microscopy. […] The number of aggregates in 20 cells was also calculated. 8R10Q and 8R15Q increased the number of the aggregates by 4-5 fold (FIG. 3, panel E).

[2] = Solubility of therapeutic peptides; format: physicochemical
Method: (§1) In this study, the rational design was tested for HD. Several bipartite therapeutic peptides containing 8 consecutive arginines (8R) attached to a stretch of consecutive glutamines (polyQ) were synthesized and their biological activity of decreasing the aggregation propensity of the mHtt protein was investigated. The length of the polyQ of these bipartite peptides was 5 (8R5Q), 10 (8R10Q), 15 (8R15Q) or 20 (8R20Q) (Table 2).

109QmHtt [3] = experiment: Filter trap assay of aggregated 109QmHtt in Neuro2a cells; format: cell-based
Method: (§2) FIG. 4. Testing the ability of therapeutic peptides to decrease mHtt aggregation in Neuro2a cells overexpressing mHtt. Panel A: Filter trap assays and corresponding quantitation of cells (panel B) treated as indicated at 8 hours (T1), 24 hours (T2), or both (T1+2) after transfection with the 109QmHtt construct. […] Panel C: Western blots and quantitation (panel D) of RIPA-soluble (sol) and -insoluble (ins) fractions of Neuro2a cells overexpressing 25QHtt or 109QmHtt and treated as indicated. […] Panel E: Western blot of the 109QmHtt in cells treated as indicated. Note that MG132 blocked the effect of 8R10Q peptide with respect to decreasing insoluble 109QmHtt. Panel F: Quantitation of ratio of 109QmHtt in cells treated MG132 (+) over DMSO (−) in relationship to peptides. Statistical analysis conducted with one way ANOVA, *<0.05, **<0.01, ***<0.001, ns: not significant.
Whether the peptides could modulate the aggregation propensity of mHtt was next investigated.

[4] = Stability of therapeutic peptides determined by HPLC; format: physicochemical; conditions: day 0 to day 28
Method: FIG. 2. Stability of the therapeutic peptides determined by HPLC. A: diagrams showing the retention time of the tested peptides from day 0 to day 28. B: charts showing the amount of the tested peptides at day 0 and day 28.
as §1

109QmHtt [5] = experiment: Western blot of RIPA-soluble and -insoluble fractions of Neuro2a lysates; format: cell-based; conditions: all groups
Method: as §2
For further characterization, Neuro2a lysates were separated into the RIPA-soluble (sol) and insoluble (ins) fractions ([…]). 8R10Q peptide decreased the level of mHtt in both the soluble and insoluble fractions as compared with water, 8R, or the scrambled (s8R10Q) control (FIG. 4, panel D). […]

[6] = system: Neuro2a cells expressing 109QmHtt; experiment: Retinoic acid-induced neurite outgrowth; format: cell-based, mouse; conditions: 109QmHtt cells; vs water or scrambled control
Method: FIG. 5. Therapeutic effect of 8R10Q and 8R15Q in 109QmHtt-expressing cells. Panel A: Cell viability assay by MTT in Neuro2a cells expressing 25QHtt (left) or 109QmHtt (right) treated with H2O2 at 50 μM and the indicated peptide. Panel B: Cell growth curve of Neuro2a cells expressing 25QHtt or 109QmHtt treated with indicated peptide. The cells in right subpanel were further treated with H2O2 at 12.5 μM 16 hours after transfection. 109QmHtt cells growth was slower than that of the 25QHtt cells. 8R10Q treatment rescued the slow growth of Neuro2a cells by 109QmHtt with or without H2O2. Panel C: Micrographs of the phase contrast and fluorescent images of retinoic acid-differentiated Neu2a cells expressing GFP-25QHtt or GFP-109QmHtt (GFP) treated with the indicated peptide. Note the neurites of the differentiated cells. Panel D: Quantitation of the percentage of differentiated cells with neurites. Fewer 109QmHtt-expressing cells had neurites vs. 25QHtt-expressing cells. […] The experiments were conducted in triplicate and repeated twice. Statistical analysis was performed with one way ANOVA, *p<0.05; **p<0.01; ***p<0.001, ns: not significant.
Retinoic acid (RA) induced the differentiation of Neuro2a cells with neurite outgrowth. 109QmHtt decreased the number of cells bearing RA-induced neurites relative to 25QHtt (FIG. 5, panels C and D).

Compound	average size of the aggregates (109QmHtt aggregates) [μm^2]	Solubility (DMEM/10% FBS) [2]	solubility in water or culture medium [2]	also measured
RRRRRRRRGSNKGAIIGLM-NH2 [R8-Aβ(25-35)]	–	–	–	viability of Neuro2a cells treated with peptide alone [1]: no detectable toxicity
CC[C@H](C)[C@H](NC(=O)[C@H](C)NC(=O)CNC(=O)[C@H](CCCCN)NC(=O)[C@H](CC(N)=O)NC(=O)[C@H](CO)NC(=O)CNC(=O)[C@@H](CCCNC(=N)N)NC(=O)[C@@H](CCCNC(=N)N)NC(=O)[C@@H](CCCNC(=N)N)NC(=O)[C@@H](CCCNC(=N)N)NC(=O)[C@@H](CCCNC(=N)N)NC(=O)[C@@H](CCCNC(=N)N)NC(=O)[C@@H](CCCNC(=N)N)NC(=O)[C@H](N)CCCNC(=N)N)C(=O)N[C@H](C(=O)NCC(=O)N[C@@H](CC(C)C)C(=O)N[C@@H](CCSC)C(N)=O)[C@@H](C)CC [^DR8-Aβ(25-35)] (H-[dR][dR][dR][dR][dR][dR][dR][dR]GSNKGAIIGLM-NH2; N-terminus assumed)	–	–	–	viability of Neuro2a cells treated with peptide alone [1]: no detectable toxicity
H-RRRRRRRRWDQQQQQQQQQQQQQQQ-NH2 [Peptide 8R15Q, NH2-(R)8-W-D-(Q)15-CONH2]	0.2	aggregated	partially soluble	aggregated 109QmHtt by filter trap assay (109QmHtt [3]; 20 μM peptide added at 8 hours (T1) or 8 plus 24 hours (T1+T2) after transfection, vs water or 8R): significantly reduced; aggregated 109QmHtt by filter trap assay (109QmHtt [3]; peptide added at 24 hours alone): no obvious effects; change in retention time and amount during HPLC analysis [4]: time-dependent decrease in the retention time and amount
H-RRRRRRRRWDQQQQQ-NH2 [Peptide 8R5Q, NH2-(R)8-W-D-(Q)5-CONH2]	–	Soluble	highly soluble	–
CC(C)C[C@@H](C=O)NC(=O)[C@H](CC(C)C)NC(=O)[C@H](CC(C)C)NC(=O)OCc1ccccc1 [MG132, reference compound] (Cbz-Leu-Leu-Leu-aldehyde)	–	–	–	level of mHtt after MG132 treatment (109QmHtt [5]): increased
H-RRRRRRRRWDQQQQQQQQQQQQQQQQQQQQ-NH2 [Peptide 8R20Q, NH2-(R)8-W-D-(Q)20-CONH2]	–	aggregated	insoluble	change in retention time and amount during HPLC analysis [4]: time-dependent decrease in the retention time and amount
H-RRRRRRRRWD-NH2 [Peptide 8R, NH2-(R)8-W-D-CONH2, reference compound]	3.3	Soluble	–	RA-induced neurite outgrowth [6]: rescued the cells from this toxicity to some extent
TAMRA-NH-(R)8-W-D-CONH2 [TAMRA-8RWD, reference compound]	–	Soluble	–	–
TAMRA-NH-RQQRRQQDQRQWQRQRQQRR-CONH2 ({TAMRA}-RQQRRQQDQRQWQRQRQQRR-NH2) [TAMRA-s8R10Q, reference compound]	–	Soluble	–	–
H-RQQRRQQDQRQWQRQRQQRR-NH2 [s8R10Q, reference compound]	1.7	Soluble	–	–
